Test results as given in PubChem BioAssay AID651650 (Sanford-Burnham Center for Chemical Genomics, 2012).
Activity calls are given as the source filed them.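 Rule for the calls: active = mean IC50 below 20 µM in each of the two panels, so potent in both; inactive = the rest.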

Target: Neuropilin-1 (Homo sapiens) (UniProt O14786)
Assay: NRP-1 b1b2 CendR peptide binding inhibitors, dose response, biochemical, FP and AlphaScreen panel (AID 651650)
Details: NRP-1 b1b2 / RPARPAR peptide binding, FP or AlphaScreen
[1] = AlphaScreen, run 1, individual panel run IC50
[2] = FP, run 1, individual panel run IC50
[3] = FP, run 2, individual panel run IC50

Sequence of Neuropilin-1 (Homo sapiens) (O14786 whole entry, looked up): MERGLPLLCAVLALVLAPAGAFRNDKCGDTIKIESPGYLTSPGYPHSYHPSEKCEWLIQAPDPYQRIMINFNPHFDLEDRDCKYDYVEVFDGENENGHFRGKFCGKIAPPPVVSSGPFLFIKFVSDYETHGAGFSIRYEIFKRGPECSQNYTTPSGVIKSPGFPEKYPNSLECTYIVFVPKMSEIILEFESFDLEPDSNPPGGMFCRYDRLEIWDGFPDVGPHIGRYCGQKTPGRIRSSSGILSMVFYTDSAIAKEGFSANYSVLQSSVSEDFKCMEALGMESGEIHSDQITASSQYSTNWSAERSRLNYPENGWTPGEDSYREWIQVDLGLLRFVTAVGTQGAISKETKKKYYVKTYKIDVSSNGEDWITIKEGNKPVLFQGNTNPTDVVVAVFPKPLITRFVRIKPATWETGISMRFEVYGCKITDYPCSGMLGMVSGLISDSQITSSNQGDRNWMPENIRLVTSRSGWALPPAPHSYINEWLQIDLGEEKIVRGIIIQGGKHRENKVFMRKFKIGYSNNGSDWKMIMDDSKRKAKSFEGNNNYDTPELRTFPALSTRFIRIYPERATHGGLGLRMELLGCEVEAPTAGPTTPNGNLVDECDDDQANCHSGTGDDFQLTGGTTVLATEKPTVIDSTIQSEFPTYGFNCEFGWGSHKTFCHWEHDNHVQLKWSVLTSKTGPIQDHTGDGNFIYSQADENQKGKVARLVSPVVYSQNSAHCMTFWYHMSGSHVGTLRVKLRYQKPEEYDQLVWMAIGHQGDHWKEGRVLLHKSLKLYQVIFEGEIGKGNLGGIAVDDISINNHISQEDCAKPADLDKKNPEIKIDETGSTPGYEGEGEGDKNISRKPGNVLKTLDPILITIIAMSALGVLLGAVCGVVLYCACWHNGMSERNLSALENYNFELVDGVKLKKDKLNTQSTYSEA

Row | SMILES | IC50 (AlphaScreen, mean of runs) | IC50 [1] | IC50 (FP, mean of runs) | IC50 [2] | IC50 [3]
1 | COc1cccc(NC(=O)CSc2nc(O)c(C)c(=O)n2-c2ccc(C)cc2)c1 | > 100 µM (inactive) | > 100 µM | inactive | 20.1 µM | > 95 µM
2 | O=C(Nc1cccc2c1CCCC2)c1cc(C2CCCCN2C(=O)CCCc2ccccc2)on1 (stereo not given) | > 100 µM (inactive) | > 100 µM | > 95 µM (inactive) | > 95 µM | > 95 µM
3 | NNc1ncnc2c1cnn2-c1ccccc1 | > 100 µM (inactive) | > 100 µM | > 95 µM (inactive) | > 95 µM | > 95 µM
4 | Cc1ccc(N(C(=O)c2ccc(CN3CCOCC3)o2)C(C(=O)NCCC(C)C)c2cccs2)c(C)c1 (stereo not given) | > 100 µM (inactive) | > 100 µM | > 95 µM (inactive) | > 95 µM | > 95 µM
5 | O=C1C=CC(=O)C2C1C1(Cl)C(Cl)=C(Cl)C2(Cl)C1(Cl)Cl (stereo not given) | > 100 µM (inactive) | > 100 µM | > 95 µM (inactive) | > 95 µM | > 95 µM
6 | OCCNc1ncnc2ccc(Br)cc12 | inactive | 45.2 µM | > 95 µM (inactive) | > 95 µM | > 95 µM
7 | CC(C)(C)n1nc(-c2ccc(F)cc2)c2c(N)ncnc21 | > 100 µM (inactive) | > 100 µM | > 95 µM (inactive) | > 95 µM | > 95 µM

Other lines, results leading:

Row | IC50 (AlphaScreen, mean of runs) | IC50 [1] | IC50 (FP, mean of runs) | IC50 [2] | IC50 [3] | SMILES
8 | > 100 µM (inactive) | > 100 µM | > 95 µM (inactive) | > 95 µM | > 95 µM | CC(C)(C)OC(=O)N1CCC(NC(=O)c2nc[nH]c2C(=O)N2CCc3ccccc3C2)CC1
9 | > 100 µM (inactive) | > 100 µM | > 95 µM (inactive) | > 95 µM | > 95 µM | Cc1ccc(NC(=O)COc2ncnc3c(Cl)cc(Cl)cc23)cc1[N+](=O)[O-]
10 | > 100 µM (inactive) | > 100 µM | > 95 µM (inactive) | > 95 µM | > 95 µM | O=C(NNC(=O)C1CCN(c2ncccn2)CC1)c1ccc(F)cc1
11 | > 100 µM (inactive) | > 100 µM | > 95 µM (inactive) | > 95 µM | > 95 µM | Cc1nn(-c2ccccc2)c(C)c1C(=O)OCC(=O)Nc1ccccc1
12 | 9.02 µM | 9.02 µM | > 95 µM (inactive) | > 95 µM | > 95 µM | CCOC(=O)C1(Cc2cccc(F)c2)CCN(Cc2ccon2)CC1
13 | > 100 µM (inactive) | > 100 µM | > 95 µM (inactive) | > 95 µM | > 95 µM | CCOCCCNC(=O)C(c1ccc(C)cc1)N(Cc1cccs1)C(=O)c1ccccc1O (stereo not given)
14 | > 100 µM (inactive) | > 100 µM | > 95 µM (inactive) | > 95 µM | > 95 µM | CC(C)C1=C2CCCCC2NC(=O)N1 (stereo not given)
15 | > 100 µM (inactive) | > 100 µM | > 95 µM (inactive) | > 95 µM | > 95 µM | O=C(/C=C/c1ccccc1)c1ccccn1
16 | > 100 µM (inactive) | > 100 µM | > 95 µM (inactive) | > 95 µM | > 95 µM | O=C(O)c1cccc(N2C(=O)c3cc([N+](=O)[O-])cc4cc([N+](=O)[O-])cc(c34)C2=O)c1
17 | > 100 µM (inactive) | > 100 µM | > 95 µM (inactive) | > 95 µM | > 95 µM | CC1(C(=O)NCc2cccc3ccccc23)CCN1Cc1cccc2c1OCO2 (stereo not given)
